According to ChEMBL document CHEMBL1201862, “PubChem BioAssay data set” (2004):
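Following 48 hours of exposure in 96-well plates, responses at five concentrations were used to interpolate endpoints linearly. GI50 marks 50% less growth.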 Calls of active or inactive are those of the source. Cut-off read from the data, not from the text of the source: active = GI50 up to about 1.1 µM and inactive = higher.

Assays:
Assay in all cases: inhibition of tumour cell growth, NCI panel, 48 h
MDA-MB-435 = tested on: MDA-MB-435
NCI/ADR-RES = tested on: NCI/ADR-RES
SNB-75 = tested on: SNB-75
UACC-62 = tested on: UACC-62
RXF 393 = tested on: RXF 393
BT-549 = tested on: BT-549
CCRF-CEM = tested on: CCRF-CEM
KM12 = tested on: KM12
HCT-15 = tested on: HCT-15
Malme-3M = tested on: Malme-3M
SF-268 = tested on: SF-268
DU-145 = tested on: DU-145
HT-29 = tested on: HT-29
MCF7 = tested on: MCF7
OVCAR-4 = tested on: OVCAR-4
SN12C = tested on: SN12C
Hs-578T = tested on: Hs-578T
786-0 = tested on: 786-0
UO-31 = tested on: UO-31
HL-60 = tested on: HL-60
HOP-62 = tested on: HOP-62
CAKI-1 = tested on: CAKI-1
SF-295 = tested on: SF-295
IGROV-1 = tested on: IGROV-1
OVCAR-8 = tested on: OVCAR-8
HOP-92 = tested on: HOP-92
MDA-N = tested on: MDA-N
SK-MEL-2 = tested on: SK-MEL-2
HCT-116 = tested on: HCT-116
MOLT-4 = tested on: MOLT-4
SK-MEL-5 = tested on: SK-MEL-5
NCI-H226 = tested on: NCI-H226
K562 = tested on: K562
PC-3 = tested on: PC-3
SF-539 = tested on: SF-539
COLO 205 = tested on: COLO 205
MDA-MB-231 = tested on: MDA-MB-231
UACC-257 = tested on: UACC-257
SK-OV-3 = tested on: SK-OV-3
NCI-H460 = tested on: NCI-H460
OVCAR-5 = tested on: OVCAR-5
EKVX = tested on: EKVX
SR = tested on: SR
ACHN = tested on: ACHN
SK-MEL-28 = tested on: SK-MEL-28
HCC 2998 = tested on: HCC 2998
A549 = tested on: A549
OVCAR-3 = tested on: OVCAR-3
SW-620 = tested on: SW-620
LOX IMVI = tested on: LOX IMVI
TK-10 = tested on: TK-10
M14 = tested on: M14
A498 = tested on: A498
SNB-19 = tested on: SNB-19
U-251 = tested on: U-251
NCI-H522 = tested on: NCI-H522
RPMI-8226 = tested on: RPMI-8226
NCI-H23 = tested on: NCI-H23

Cc1nc2ccc(Br)cc2c(=O)n1-c1ccc(N)cc1
GI50 (MDA-MB-435): > 100 µM (inactive)
GI50 (NCI/ADR-RES): > 100 µM (inactive)
GI50 (SNB-75): 17.2 µM (inactive)
GI50 (UACC-62): > 100 µM (inactive)
GI50 (RXF 393): 28.1 µM (inactive)
GI50 (BT-549): 99.5 µM (inactive)
GI50 (CCRF-CEM): > 100 µM (inactive)
GI50 (KM12): > 100 µM (inactive)
GI50 (HCT-15): > 100 µM
GI50 (Malme-3M): > 100 µM (inactive)
GI50 (SF-268): > 100 µM (inactive)
GI50 (DU-145): > 100 µM (inactive)
GI50 (HT-29): > 100 µM (inactive)
GI50 (MCF7): > 100 µM (inactive)
GI50 (OVCAR-4): > 100 µM (inactive)
GI50 (SN12C): > 100 µM (inactive)
GI50 (Hs-578T): > 100 µM (inactive)
GI50 (786-0): > 100 µM (inactive)
GI50 (UO-31): 84.5 µM (inactive)
GI50 (HL-60): > 100 µM (inactive)
GI50 (HOP-62): > 100 µM (inactive)
GI50 (CAKI-1): > 100 µM (inactive)
GI50 (SF-295): > 100 µM (inactive)
GI50 (IGROV-1): > 100 µM (inactive)
GI50 (OVCAR-8): > 100 µM (inactive)
GI50 (HOP-92): > 100 µM (inactive)
GI50 (MDA-N): > 100 µM (inactive)
GI50 (SK-MEL-2): > 100 µM (inactive)
GI50 (HCT-116): > 100 µM (inactive)
GI50 (MOLT-4): > 100 µM (inactive)
GI50 (SK-MEL-5): > 100 µM (inactive)
GI50 (NCI-H226): > 100 µM (inactive)
GI50 (K562): > 100 µM (inactive)
GI50 (PC-3): > 100 µM (inactive)
GI50 (SF-539): > 100 µM (inactive)
GI50 (COLO 205): > 100 µM (inactive)
GI50 (MDA-MB-231): > 100 µM (inactive)
GI50 (UACC-257): > 100 µM (inactive)
GI50 (SK-OV-3): > 100 µM (inactive)
GI50 (NCI-H460): > 100 µM (inactive)
GI50 (OVCAR-5): > 100 µM (inactive)
GI50 (EKVX): > 100 µM (inactive)
GI50 (SR): > 100 µM (inactive)
GI50 (ACHN): > 100 µM (inactive)
GI50 (SK-MEL-28): > 100 µM (inactive)
GI50 (HCC 2998): > 100 µM (inactive)
GI50 (A549): > 100 µM (inactive)
GI50 (OVCAR-3): > 100 µM (inactive)
GI50 (SW-620): > 100 µM (inactive)
GI50 (LOX IMVI): > 100 µM (inactive)
GI50 (TK-10): > 100 µM (inactive)
GI50 (M14): > 100 µM (inactive)
GI50 (A498): > 100 µM (inactive)
GI50 (SNB-19): > 100 µM (inactive)

Nc1nc2c(c(-c3ccc(F)cc3)n1)COC/C2=C\c1ccc(F)cc1
GI50 (MDA-MB-435): 41.2 µM (inactive)
GI50 (NCI/ADR-RES): 65.8 µM (inactive)
GI50 (SNB-75): 20.5 µM (inactive)
GI50 (UACC-62): 79.4 µM (inactive)
GI50 (RXF 393): 52.7 µM (inactive)
GI50 (BT-549): 43.5 µM (inactive)
GI50 (U-251): 15.4 µM (inactive)
GI50 (CCRF-CEM): 52.5 µM (inactive)
GI50 (KM12): 15.7 µM (inactive)
GI50 (HCT-15): > 100 µM
GI50 (Malme-3M): 12.7 µM (inactive)
GI50 (SF-268): 14.5 µM (inactive)
GI50 (DU-145): > 100 µM (inactive)
GI50 (HT-29): 15.8 µM (inactive)
GI50 (MCF7): 28.1 µM (inactive)
GI50 (NCI-H522): 10.8 µM (inactive)
GI50 (OVCAR-4): > 100 µM (inactive)
GI50 (SN12C): > 100 µM (inactive)
GI50 (Hs-578T): 33.4 µM (inactive)
GI50 (UO-31): 14.7 µM (inactive)
GI50 (RPMI-8226): 71.6 µM (inactive)
GI50 (HL-60): 39.1 µM (inactive)
GI50 (HOP-62): 34.6 µM (inactive)
GI50 (NCI-H23): 45.6 µM (inactive)
GI50 (CAKI-1): > 100 µM (inactive)
GI50 (SF-295): 35.5 µM (inactive)
GI50 (IGROV-1): 40.6 µM (inactive)
GI50 (OVCAR-8): 58.2 µM (inactive)
GI50 (HOP-92): 30.4 µM (inactive)
GI50 (MDA-N): > 100 µM (inactive)
GI50 (SK-MEL-2): > 100 µM (inactive)
GI50 (MOLT-4): 51.2 µM (inactive)
GI50 (SK-MEL-5): 56 µM (inactive)
GI50 (NCI-H226): 27.5 µM (inactive)
GI50 (K562): 35.6 µM (inactive)
GI50 (PC-3): 43.3 µM (inactive)
GI50 (SF-539): > 100 µM (inactive)
GI50 (COLO 205): > 100 µM (inactive)
GI50 (MDA-MB-231): > 100 µM (inactive)
GI50 (UACC-257): 45.6 µM (inactive)
GI50 (SK-OV-3): > 100 µM (inactive)
GI50 (NCI-H460): 15.5 µM (inactive)
GI50 (OVCAR-5): > 100 µM (inactive)
GI50 (EKVX): 18.6 µM (inactive)
GI50 (SR): 17 µM (inactive)
GI50 (ACHN): 55.6 µM (inactive)
GI50 (SK-MEL-28): > 100 µM (inactive)
GI50 (HCC 2998): 30.8 µM (inactive)
GI50 (OVCAR-3): 51.4 µM (inactive)
GI50 (SW-620): > 100 µM (inactive)
GI50 (TK-10): 30.1 µM (inactive)
GI50 (M14): > 100 µM (inactive)
GI50 (A498): > 100 µM (inactive)
GI50 (SNB-19): 24.8 µM (inactive)
